Data from PMC6788984, “High-potency ligands for DREADD imaging and activation in rodents and monkeys” (Nature Communications, 2019).
“And” between values parts separate entries of the source, which are not always exact repeats. Identical values can stand only once. “Also recorded” adds a separate entry of the source.

Assays:
[1] = test system: animals without DREADD expression; test: In vivo electrophysiology control: electrically evoked responses in animals without DREADD expression; parameters: species or system mouse; conditions: same injection
Description: (§1) For recording experiments, animals were anesthetized with […] urethane (i.p.), injected with 0.1 ml lidocaine (s.c.) in the incision points, and placed in a stereotaxic holder (Narishige, Japan). A trephine was drilled above the LA (from bregma, AP 1.5 mm, ML 3.1 mm) and the 32 channel opto-electrode was lowered whilst stimulating until a maximum response was located (DV 4 ± 0.2 mm). Body temperature was maintained constant at 37 °C through a feedback-regulated heating pad. Before recording, tissue was left for 10–20 mins for accommodation. Input–output test curves were recorded for both intensity and pulse length 30 min before and 1 h after drug injections using 1 ms-long pulses at 0.33 Hz (450 nm, 110 mA light intensity, ~14 mW, see Supplementary Fig. 10 Panel A). For electrical stimulation experiments (see Supplementary Fig. 10, Panels F–H), a stimulation bipolar twisted platinum–iridium microelectrode was placed in the internal capsule (AP −1.7 mm, ML 2.5 mm, DV 4.0 mm) to target the axons innervating the amygdala. Electrical pulses were given at an intensity that evoked 80% of the maximum response as biphasic 100 µs long pulses at 0.33 Hz.
Raw data were filtered (0.1–3000 Hz), amplified (100×), digitized and stored (10 kHz sampling rate) for offline analysis, with a tethered recording system (Multichannel Systems, Reutlingen, Germany). […]

hM3Dq [2] = target: T1, hM3Dq (Homo sapiens, UniProt P20309, A239G/Y149C); test: DREADD-assisted metabolic mapping (DREAMM), [18F]FDG PET in D1-hM3Dq mice; format: in vivo, mouse; parameters: 026220; host or cells: mouse brain, dopamine D1 receptor-expressing neurons (transgene); conditions: 0.1 mg kg-1 IP
T1 sequence (P20309 whole entry Y149C/A239G): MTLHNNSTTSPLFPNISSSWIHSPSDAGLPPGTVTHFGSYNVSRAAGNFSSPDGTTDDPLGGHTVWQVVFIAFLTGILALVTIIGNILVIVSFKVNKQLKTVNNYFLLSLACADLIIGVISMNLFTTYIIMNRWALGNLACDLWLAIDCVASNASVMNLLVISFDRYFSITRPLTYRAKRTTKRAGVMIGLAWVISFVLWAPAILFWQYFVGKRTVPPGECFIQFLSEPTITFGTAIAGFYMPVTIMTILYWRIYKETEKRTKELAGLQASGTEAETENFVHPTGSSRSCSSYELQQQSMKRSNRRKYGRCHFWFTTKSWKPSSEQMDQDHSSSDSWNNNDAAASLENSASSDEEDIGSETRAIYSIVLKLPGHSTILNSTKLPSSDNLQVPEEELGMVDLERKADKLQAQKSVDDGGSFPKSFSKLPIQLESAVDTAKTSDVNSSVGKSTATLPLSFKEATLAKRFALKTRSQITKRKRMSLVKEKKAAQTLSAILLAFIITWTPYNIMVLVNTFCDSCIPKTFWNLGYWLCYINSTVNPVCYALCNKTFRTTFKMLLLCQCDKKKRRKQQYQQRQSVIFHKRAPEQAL
Description: (§2) Mice (D1-hM3Dq, D1-hM4Di or WT littermates, see above) were habituated to experimenter handling and fasted 16 h before the experiment. On the day of the experiment, mice received an IP injection of vehicle (1 ml kg^−1) and were placed back into their home cages. Ten minutes later, mice were injected (IP) with 11 MBq of 2-deoxy-2-[^18F]fluoro-D-glucose (FDG, Cardinal Health) and placed back into their home cages. After 30 min, mice were anesthetized with 1.5% isoflurane, placed on a custom-made bed of a nanoScan small animal PET/CT scanner (Mediso Medical Imaging Systems) and scanned for 20 min on a static acquisition protocol, followed by a CT scan. […] Voxel-based repeated measures with Student’s t test comparing baseline to drug were performed, and the resulting parametric images were filtered for statistically significant (p < 0.05) clusters larger than 100 contiguous voxels. All statistical parametric mapping analyses were performed using Matlab R2016 (Mathworks) and SPM12 (University College London).

hM4Di [3] = target: T2, hM4Di (Homo sapiens, UniProt P08173, A203G/Y113C); test: DREADD-assisted metabolic mapping (DREAMM), [18F]FDG PET in D1-hM4Di mice; format: in vivo, mouse; parameters: 026219; host or cells: mouse brain, dopamine D1 receptor-expressing neurons (transgene); conditions: 0.1 mg kg-1 IP
T2 sequence (P08173 1-479 Y113C/A203G): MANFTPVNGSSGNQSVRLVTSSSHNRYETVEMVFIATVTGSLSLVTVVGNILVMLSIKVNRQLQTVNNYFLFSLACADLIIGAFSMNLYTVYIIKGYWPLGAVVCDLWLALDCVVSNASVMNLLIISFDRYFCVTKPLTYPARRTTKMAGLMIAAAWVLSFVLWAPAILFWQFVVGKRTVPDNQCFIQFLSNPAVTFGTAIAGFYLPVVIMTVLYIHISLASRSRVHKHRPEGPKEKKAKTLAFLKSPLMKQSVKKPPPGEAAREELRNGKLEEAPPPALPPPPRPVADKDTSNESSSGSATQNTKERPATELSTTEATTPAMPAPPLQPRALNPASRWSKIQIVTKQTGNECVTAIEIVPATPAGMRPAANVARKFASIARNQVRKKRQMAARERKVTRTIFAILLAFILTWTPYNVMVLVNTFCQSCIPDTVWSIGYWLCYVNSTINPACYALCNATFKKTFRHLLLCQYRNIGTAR
Description: as §2

hM4Di [4] = target: T2, hM4Di; test: In vivo electrophysiology: ChrimsonR light-evoked responses in LA of mice expressing hM4Di in MGM terminals; parameters: 026219; host or cells: mouse brain, dopamine D1 receptor-expressing neurons (transgene); species or system mouse; conditions: 0.1 mg kg-1 IP
Description: Mice were purchased from Janvier Labs and stored in grouped cages (maximun 4 per cage) with ad libitum access to food and water, and in a 12 h light/dark cycle (lights on at 7:00 a.m.). All the experiments were performed in accordance to the national Danish law for the use of laboratory animals and approved by local authorities.
For AAV injection, mice were anaesthetized with Isoflurane and placed in a stereotaxic holder (Narishige, Japan). A trephine hole was drilled above the MGM (from bregma, AP 3.1 mm, ML 1.8 mm). Several injections of a mixture of ssAAV-8/2-hSyn1-hM4D(Gi)_mCherry-WPRE-hGHp(A) and ssAAV-8/2-hSyn1-oChIEF_ChrimsonR_mCitrine-WPRE-SV40pA (in a 1:4 viral particle ratio) were performed sequentially in different locations (AP 3.05 mm, ML 1.75 mm, DV 3.2 and 3.5 mm; second location AP 3.2 mm, ML 1.85 mm, DV 3.3 and 3.6 mm) so that a total of 4 injections of 0.5 µL were made to distribute the virus evenly through the desired location. Injections were made using a pressurized picospritzer and a pulled glass pipette. After viral injection, animals were kept for 4 weeks to ensure maximum virus expression through axon terminals.
as §1, with “For electrical stimulation experiments (see Supplementary Fig. 10, Panels F–H), a stimulation bipolar twisted platinum–iridium microelectrode was placed in the internal capsule (AP −1.7 mm, ML 2.5 mm, DV 4.0 mm) to target the axons innervating the amygdala. Electrical pulses were given at an intensity that evoked 80% of the maximum response as biphasic 100 µs long pulses at 0.33 Hz.” left out

[5] = test system: mu, kappa, and delta opioid receptors; test: Binding and enzyme target profile screen (Eurofins); conditions: competitive binding screen, 10 uM
Description: These experiments were performed by an outside vendor (Eurofins, France). […] In each experiment, the respective reference compound was tested concurrently with the test compound to assess the assay reliability. […] Following incubation, the samples were filtered rapidly under vacuum through glass fiber filters presoaked in a buffer and rinsed several times with an ice-cold buffer using a 48-sample or 96-sample cell harvester. The filters were counted for radioactivity in a scintillation counter using a scintillation cocktail.

hM3Dq [6] = target: T1, hM3Dq; test: [11C]clozapine PET DREADD occupancy in AAV-DREADD mice, hM3Dq; conditions: 0.1 mg kg-1 IP, individual values, listed as J52
Description: (§3) Animals were anesthetized with isoflurane or a mix of ketamine/xylazine and prepped on a stereotaxic apparatus (Kopf, Germany). […] When indicated, animals were pretreated with vehicle or the indicated drug 10 min before the injection of the PET radiotracer. Total acquisition time was 60 min.
(§4) In all cases, the PET data were reconstructed and corrected for dead-time and radioactive decay. All qualitative and quantitative assessments of PET images were performed using the PMOD software environment (PMOD Technologies, Zurich Switzerland). Binding potential BPND (a relative measure of specific binding) was calculated using a reference tissue model using the cerebellum as a reference tissue in rodents. In macaques, the kinetic data were fitted to a two-tissue compartment model and the concentration of parent in plasma was used as an input function, then the volume of distribution ratios compared to cerebellum were calculated to establish BPND. In all cases, the dynamic PET images were coregistered to MRI templates and time-activity curves were generated using predefined volumes of interest (macaques) or manually drawn in rodents and the described analyses were performed. Receptor occupancy was calculated using the formula: occupancy = (BPND^0 − BPND^Drug)/BPND^0 × 100, where BPND^0 is the binding potential of the baseline condition and BPND^Drug the binding potential when the animals were pretreated with the drug.

hM4Di [7] = target: T2, hM4Di; test: [11C]clozapine PET DREADD occupancy in AAV-DREADD mice, hM4Di; conditions: 0.1 mg kg-1 IP, individual values, listed as J52
Description: as §3, §4

Question: Which results are given for `CCN1CCN(C2=Nc3cc(Cl)ccc3Nc3c(F)cccc32)CC1` [JHU37160, 8-Chloro-11-(4-ethylpiperazin-1-yl)-4-fluoro-5H-dibenzo[b,e][1,4]diazepine]?
Answer: effect on electrical stimulation evoked responses [1]: no effect; brain metabolism ([18F]FDG) (hM3Dq [2]): decreased metabolism; brain metabolism ([18F]FDG) (hM4Di [3]): increased metabolism; light-evoked response, % of baseline (maximal inhibition) (hM4Di [4]; 30 min after injection): 19 ± 2 % of baseline; inhibition of ChrimsonR-induced terminal activation (hM4Di [4]; ~10 min): 60%; light-evoked response, % of baseline (hM4Di [4]; ~10 min): 36 ± 9 % of baseline

Question: For `c1ccc2c(c1)N=C(N1CCNCC1)c1ccccc1N2` [C21], which “binding to opioid receptors” value [5] is on record?
Answer: exhibited binding to mu, kappa, and delta opioid receptors; also recorded: binds to opioid receptors

Question: How did the “displacement of in vivo [11C]clozapine binding, hM3Dq” value (hM3Dq [6]) turn out when `CCN1CCN(C2=Nc3cc(Cl)ccc3Nc3cccc(F)c32)CC1` [JHU37152, 8-Chloro-11-(4-ethylpiperazin-1-yl)-1-fluoro-5H-dibenzo[b,e][1,4]diazepine] was run?
Answer: 25.1963 and 16.746 and 26.3837

Question: And the “displacement of in vivo [11C]clozapine binding, hM4Di” value (hM4Di [7])?
Answer: -5.675 and 34.4851 and 23.8214
